The values below come from the METLIN SMRT retention time set (Domingo-Almenara et al. 2019).

Each structure is given as a SMILES string.

A short description of the series: gradient 5% acetonitrile 3 min, to 50% in 2 min, to 85% in 15 min, held 3 min, 100 µL/min. Particulars: column: Zorbax Extend-C18 2.1 x 50 mm; eluents: water / acetonitrile, 0.1% formic acid. In a few lines: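 Using water and acetonitrile that each contained 0.1% formic acid, mixtures of ~100 pure standards were separated at 100 μL/min on a Zorbax Extend-C18 column (2.1 × 50 mm, 1.8 μm). The HPLC fed a quadrupole time-of-flight mass spectrometer working in positive and negative ionization mode, with dead and dwell volumes of 40 μL and 900 μL. Data were acquired over 3 months. Retention time was read from computationally picked adduct peaks after manual inspection of each.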
In turn, `CC1CCN(S(=O)(=O)c2ccc(-c3nnc(C(=O)NCCN4CCCCCC4)o3)cc2)CC1` gave an RP-LC retention time of 726 s.
The same measure for `Cc1cccc(-c2nnc(-c3nc(N4CCCCC4C)c4ccccc4n3)o2)c1` (configuration not stated): 1270 s; for `CC(C)CCNC(=O)N1CC(c2nc(-c3ccccc3)no2)C2(CCOCC2)C1` (configuration not stated): 914 s.
As to `CCc1ccc(CNC(=O)Cn2c(C)cc(-c3nnc(C4CCC4)o3)c2C)cc1`, the RP-LC retention time is 965 s.
The molecule `Cc1ccc2c(c1)N(CC#N)N=C(C(=O)N1CCC(C)CC1)S2(=O)=O` came in with an RP-LC retention time of 842 s.
In turn, `Cc1ccc(C(=O)N2CCc3sc(C(=O)N4CCN(C(C)C)CC4)cc3C2)cc1` showed an RP-LC retention time of 625 s.
As to `CCN(CC)CCNC(=O)c1ccc(-c2nc(CCN(C)C(C)=O)no2)cc1`, the RP-LC retention time stood at 576 s.
Take `CCC(C(=O)NCCCN1CCN(CC)CC1)n1nc(C)c2sc3ccccc3c2c1=O` (configuration not stated): the RP-LC retention time is 624 s.
`CCn1c(=O)c(C(=O)N2CCN(C3CCCCC3)CC2)nc2cccnc21` gave an RP-LC retention time of 520 s.
`CSc1ccc(CNC(=O)C2CCN(c3nnc(-c4ccccc4)o3)CC2)cc1`: the RP-LC retention time was 846 s.
The same measure for `CCN(CC)CCNC(=O)Cc1noc2ccc(C)cc12`: 604 s.
The same measure for `CC1(C)O[C@@H]2C[C@H]3[C@@H]4CCC5=CC(=O)C=C[C@]5(C)[C@H]4[C@@H](O)C[C@]3(C)[C@]2(C(=O)CO)O1`: 814 s; for `O=S(=O)(c1ccccc1Cl)N1CC(c2nc(Cc3ccccc3)no2)C1`: 951 s.
`Cc1cccc(-c2nc3sc(N4CCCCC4)nn3c2NC(=O)C2CC2)c1` showed an RP-LC retention time of 891 s.
For `Cc1ccc(CNC(=O)c2ccc3c(c2)CN(Cc2scnc2C)CCO3)cc1`, the RP-LC retention time amounted to 648 s.
`O=C(Nc1nccs1)C1CC(=O)N(c2n[nH]c3cccc(F)c23)C1` (configuration not stated): the RP-LC retention time was 650 s.
`O=C(NC1CCCCC1)N1CCc2nc(-c3ccc(F)cc3)ncc2C1` returned an RP-LC retention time of 882 s.
`CCOC(=O)C1=C(C)NC2=C(C(=O)c3ccccc32)C1c1ccccc1OC` (configuration not stated): the RP-LC retention time stood at 950 s.
Molecule `Cn1cc(CCN2CCC(C(=O)NCc3ccccc3)CC2)c2cccnc21` gave an RP-LC retention time of 588 s.
Turning to `Cc1c(C2CCN(C(=O)Cc3ccc(F)cc3)CC2)noc1N`, the RP-LC retention time was 698 s.
On to `CCOc1ccc(CNC(=O)c2cc(NC(C)=O)cc3nc(C)ccc23)cc1`, for which the RP-LC retention time amounted to 620 s.
In turn, `CCOc1cc(C(=O)Nc2nc(-c3ccc(OC)cc3)c(C)s2)cc(OCC)c1OCC` returned an RP-LC retention time of 1360 s.
To `Cc1ccc(CNS(=O)(=O)c2cc3c(s2)CCN(C(=O)C2CC2)C3)cc1` belongs 847 s.
The molecule `O=C(Cn1cnc2c(nc3n2CCCCC3)c1=O)Nc1ccc2c(c1)OCCO2` yielded an RP-LC retention time of 659 s.
Molecule `O=S(=O)(NCCN1CCOCC1)c1cc(-c2noc(C3CCCC3)n2)cs1` gave an RP-LC retention time of 678 s.
With `CCCNC(=O)C1CCN(c2ccc(SCC(=O)Nc3ccc(C)cc3Cl)nn2)CC1`, the RP-LC retention time is 1160 s.
As to `O=C(Cn1cnc2nc3c(cc2c1=O)CCCC3)Nc1ccc(Cl)cc1`, the RP-LC retention time was found to be 761 s.
`CN(C)c1ccc(CNC(=O)C2CCN(Cc3cn(C)c4ccc(Cl)cc34)CC2)cc1` showed an RP-LC retention time of 584 s.
For the molecule `O=C(c1cccs1)N1CCCC1c1nc(-c2ccc(F)cc2F)no1` (configuration not stated), the RP-LC retention time amounted to 926 s.
On to `COCCCNC(=O)N1CC(c2nc(C)no2)C2(CCOCC2)C1` (configuration not stated), for which the RP-LC retention time is 598 s.
In turn, `CCCCN1C(=O)C(C)(C(=O)NCc2ccc(F)cc2)Oc2cccnc21` (configuration not stated) returned an RP-LC retention time of 984 s.
Regarding `Cc1ccc(CNC(=O)c2cnn3c(-c4ccc(Cl)cc4)ccnc23)o1`, the RP-LC retention time is 1050 s.
